{
  "source": "patent US20130053434A1",
  "about": "“IRREVERSIBLE INHIBITORS USEFUL FOR THE TREATMENT OF KINASE-RELATED PATHOLOGIES” (CENTRE NATIONAL DE LA RECHERCHE SCIENTIFIQUE, priority 2009, published 2013)",
  "conditions": "ester bond, DIAD/PPh3, toluene, 23.0 °C",
  "note": "Read-outs that look alike come from different tables or passages of the source.",
  "data": [
    {"compound": "CCOCOc1cc2c(c(OCOCC)c1)C(=O)O[C@@H](C)C/C=C(/F)C(OC(=O)c1ccccc1)[C@H]1OC(C)(C)O[C@H]1C/C=C/2", "note": "(stereo partly shown)", "values": [
      {"measurement": "ring closure, yield of all isomers", "setting": "from CCOCOc1cc(/C=C/C[C@@H]2OC(C)(C)O[C@@H]2C(OC(=O)c2ccccc2)/C(F)=C\\C[C@@H](C)O)c(C(=O)O)c(OCOCC)c1, 10.2 mM, 1.5 h, 2 steps", "value": 74, "unit": "%"}
    ]},
    {"compound": "CCOCOc1cc2c(c(OCOCC)c1)C(=O)O[C@@H](C)C/C=C(/F)C(OC(=O)c1ccccc1)[C@H]1OC(C)(C)O[C@H]1CCO2", "note": "(stereo partly shown)", "values": [
      {"measurement": "ring closure, yield of all isomers", "setting": "from CCOCOc1cc(OCC[C@@H]2OC(C)(C)O[C@@H]2C(OC(=O)c2ccccc2)/C(F)=C\\C[C@@H](C)O)c(C(=O)O)c(OCOCC)c1, 10.5 mM, 1.5 h, 2 steps", "value": 70, "unit": "%"}
    ]},
    {"compound": "CCOCOc1cc2c(c(OCOCC)c1)C(=O)O[C@@H](C)C/C=C\\C(OC(=O)c1ccccc1)[C@H]1OC(C)(C)O[C@H]1CC/C=C/2", "note": "(stereo partly shown)", "values": [
      {"measurement": "ring closure, yield of all isomers", "setting": "from CCOCOc1cc(/C=C/CC[C@@H]2OC(C)(C)O[C@@H]2C(/C=C\\C[C@@H](C)O)OC(=O)c2ccccc2)c(C(=O)O)c(OCOCC)c1, 10.5 mM, 2.0 h", "value": 70, "unit": "%"}
    ]},
    {"compound": "CCOCOc1cc2c(c(OCOCC)c1)C(=O)O[C@@H](C)C/C=C\\C(OC(=O)c1ccccc1)[C@H]1OC(C)(C)O[C@H]1CCO2", "note": "(stereo partly shown)", "values": [
      {"measurement": "ring closure, yield of all isomers", "setting": "from CCOCOc1cc(OCC[C@@H]2OC(C)(C)O[C@@H]2C(/C=C\\C[C@@H](C)O)OC(=O)c2ccccc2)c(C(=O)O)c(OCOCC)c1, 10.7 mM, 2.0 h", "value": 80, "unit": "%"}
    ]}
  ]
}
